Source: paper PMC11085872, “Structure-Based Design of Novel Thiazolone[3,2-a]pyrimidine Derivatives as Potent RNase H Inhibitors for HIV Therapy” (Molecules, 2024)

Tests used:
[1] = target: T1, HIV-1 RT-associated RNase H (Human immunodeficiency virus type 1 group M subtype B, UniProt P03366); assay: RNase H polymerase-independent cleavage assay; type: biochemical; conditions: for IC50: IC50, compound concentration required to reduce HIV-1 RT-associated RNase H activity by 50%, recombinant HIV-1 wt RT, hybrid RNA/DNA substrate, 37 °C, 1 hour
T1 construct: His-tagged p66/p51 HIV-1 RT group M subtype B; His tag; made in house; host or cells: Escherichia coli strain M15 (plasmid p6HRT-prot)
Procedure: The Ar^1 and Ar^2 aromatic segments of the molecule also approach the protein surface, through hydrophobic interactions. These findings provide important information for further structural optimization. All these newly designed thiazolone[3,2-a]pyrimidine derivatives were evaluated for their inhibitory activity against HIV RT-associated RNase H, using the diketo acid RDS1643 as positive control. […] The decrease in activity observed in compounds containing a sulfonic acid group might be attributed to the excessively strong acidity of the sulfonic acid group, which could protonate the diazo group within the molecule. […] When Ar^2 was changed from a phenyl group to a naphthyl group, the activity of compound 10f gained a great improvement over that of compound 10k. […] And when a negatively charged polar group was present at the 2-position of Ar^2, the inhibitory activity is enhanced. […]
3. Biology Experimental section
3.1 Expression and purification of recombinant HIV-1 RTs.
His-tagged p66/p51 HIV-1 RT group M subtype B coded in a p6HRT-prot plasmid was expressed in the Escherichia coli strain M15.1 Heterodimeric RTs were expressed essentially and purified as described.2 E. coli cells harboring the expression vector were cultured until reaching an optical density at 600 nm of 0.7. Induction of protein expression was achieved by treating the cells with 1.7 mM isopropyl β-D-1-thiogalactopyranoside (IPTG) for a duration of 4 hours. The subsequent purification of the protein was performed using a BioLogic LP system (BioRad) employing a combination of immobilized metal affinity chromatography and ion exchange […]
To initiate the purification process, the cell pellets were resuspended in lysis buffer at a ratio of 1:2 (cell pellet volume: lysis buffer volume). The lysis buffer used consisted of 50 mM sodium phosphate buffer with a pH of 7.8, supplemented with 0.5 mg/ml lysozyme. The resuspended cells were incubated on ice for 20 minutes. Following this, NaCl was added to achieve a final concentration of 0.3 M. The cells were then subjected to sonication, with four cycles of 60 seconds each, alternating between one second on and one second off. Subsequently, the cell lysate was centrifuged at 30, 000×g for 1 […]
The supernatant obtained from the centrifugation step was loaded onto a Ni2+-NTA-Sepharose column that had been pre-equilibrated with a loading buffer consisting of 50 mM sodium phosphate buffer (pH 7.8), 0.3 M NaCl, 10% glycerol, and 10 mM imidazole. The column was washed with a buffer containing 50 mM sodium phosphate buffer (pH 6.0), 0.3 M NaCl, 10% glycerol, and 80 mM imidazole. The target protein, RT, was eluted using an imidazole gradient ranging from 0.08 M to 0.5 M in the wash buffer. Fractions containing the enzyme were collected and combined, and then diluted 1:1 with 50 mM sodium phosphate buffer (pH 7.0) containing 10% glycerol. The diluted protein sample was loaded onto a Hi-trap heparin HP column that had been pre-equilibrated with 10 column volumes of a loading buffer consisting of 50 mM sodium phosphate buffer (pH 7.0), 10% glycerol, and 150 mM NaCl. The column was washed with the loading buffer, and the RT enzyme was eluted using Elute Buffer 2, which
(1 picture or pasted object on this page, not shown here) […]
comprised 50 mM sodium phosphate buffer (pH 7.0), 10% glycerol, and 1 M NaCl.
The eluted fractions containing the purified protein were collected, and the protein was subsequently dialyzed and stored in a buffer composed of 50 mM Tris-HCl (pH 7.0), 25 mM NaCl, 1 mM EDTA, and 50% glycerol. The catalytic activities of the purified protein samples were determined, and aliquots were stored at -80 °C for further use.
3.2 RNase H Polymerase-Independent Cleavage Assay
The HIV-1 RT-associated RNase H activity was measured as described.3 In summary, the reaction was performed in a black 96-well plate with a total volume of 100 μL. The reaction mix consisted of 50 mM Tris HCl (pH 7.8), 6 mM MgCl2, 1 mM dithiothreitol […]

Work on `COC(=O)C1=C(C)N=C2SC(=NNc3ccccc3S(=O)(=O)O)C(=O)N2C1c1ccc(OC)c(OC)c1OC` (stereo not shown) [Compound 11e, 2-(2-(6-(Methoxycarbonyl)-7-methyl-3-oxo-5-(2,3,4-trimethoxyphenyl)-5H-thiazolo[3,2-a]pyrimidin-2(3H)-ylidene)hydrazineyl)benzenesulfonic acid] yielded an IC50 [1] greater than 100 µM, a remaining activity at 100 µM ([1]; read-out: Percentage of the control activity measured at the indicated compound concentration) of 97% and a melting point of 238 to 240 °C.
In the case of `COC(=O)C1=C(C)N=C2SC(=NNc3ccccc3OC)C(=O)N2C1c1ccccc1` (stereo not shown) [Compound 10i, Methyl 2-(2-(2-methoxyphenyl)hydrazineylidene)-7-methyl-3-oxo-5-phenyl-2,3-dihydro-5H-thiazolo[3,2-a]pyrimidine-6-carboxylate], the IC50 [1] is reported as 8.32 ± 0.06 µM and the melting point is reported as 189 to 192 °C.
`COC(=O)C1=C(C)N=C2SC(=NNc3cccc(C(=O)OC)c3)C(=O)N2C1c1ccc(OC)c(OC)c1OC` (stereo not shown) [Compound 11j, Methyl 2-(2-(3-(methoxycarbonyl)phenyl)hydrazineylidene)-7-methyl-3-oxo-5-(2,3,4-trimethoxyphenyl)-2,3-dihydro-5H-thiazolo[3,2-a]pyrimidine-6-carboxylate] showed an IC50 [1] of 42.1 ± 9.78 µM and a melting point of 213 to 215 °C.
With `COC(=O)C1=C(C)N=C2SC(=NNc3cccc(C(=O)OC)c3)C(=O)N2C1c1ccccc1` (stereo not shown) [Compound 10n, Methyl 2-(2-(3-(methoxycarbonyl)phenyl)hydrazineylidene)-7-methyl-3-oxo-5-phenyl-2,3-dihydro-5H-thiazolo[3,2-a]pyrimidine-6-carboxylate] the IC50 [1] was 7.03 ± 0.17 µM and the melting point was 214 to 216 °C.
`COC(=O)C1=C(C)N=C2SC(=NNc3ccccc3OC)C(=O)N2C1c1ccc(OC)c(OC)c1OC` (stereo not shown) [Compound 11a, Methyl 2-(2-(2-methoxyphenyl)hydrazineylidene)-7-methyl-3-oxo-5-(2,3,4-trimethoxyphenyl)-2,3-dihydro-5H-thiazolo[3,2-a]pyrimidine-6-carboxylate] gave an IC50 [1] of 11.8 ± 0.91 µM and a melting point of 178 to 180 °C.
In the case of `COC(=O)C1=C(C)N=C2SC(=NNc3cccc(C(=O)OC)c3)C(=O)N2C1c1ccc(OC)cc1` (stereo not shown) [Compound 12c, Methyl 2-(2-(3-(methoxycarbonyl)phenyl)hydrazineylidene)-5-(4-methoxyphenyl)-7-methyl-3-oxo-2,3-dihydro-5H-thiazolo[3,2-a]pyrimidine-6-carboxylate], the IC50 [1] is reported as 4.71 ± 0.86 µM and the melting point is reported as 209 to 211 °C.
For `COC(=O)C1=C(C)N=C2SC(=NNc3cccc(C(C)=O)c3)C(=O)N2C1c1ccc(OC)c(OC)c1OC` (stereo not shown) [Compound 11k, Methyl 2-(2-(3-acetylphenyl)hydrazineylidene)-7-methyl-3-oxo-5-(2,3,4-trimethoxyphenyl)-2,3-dihydro-5H-thiazolo[3,2-a]pyrimidine-6-carboxylate], the IC50 [1] was 22 ± 0.36 µM and the melting point was 216 to 219 °C.
`COC(=O)C1=C(C)N=C2SC(=NNc3ccc(OC)cc3S(=O)(=O)O)C(=O)N2C1c1ccccc1` (stereo not shown) [Compound 10e, 5-Methoxy-2-(2-(6-(methoxycarbonyl)-7-methyl-3-oxo-5-phenyl-5H-thiazolo[3,2-a]pyrimidin-2(3H)-ylidene)hydrazineyl)benzenesulfonic acid] showed an IC50 [1] of 58.4 ± 1.71 µM and a melting point of 247 to 249 °C.
`COC(=O)C1=C(C)N=C2SC(=NNc3cccc([N+](=O)[O-])c3)C(=O)N2C1c1ccccc1` (stereo not shown) [Compound 10l, Methyl 7-methyl-2-(2-(3-nitrophenyl)hydrazineylidene)-3-oxo-5-phenyl-2,3-dihydro-5H-thiazolo[3,2-a]pyrimidine-6-carboxylate] gave an IC50 [1] of 6.41 ± 0.24 µM and a melting point of 250 to 252 °C.
